The test system of assay [1] is area CA3 stratum pyramidale. Nature of the assay: Heat-induced multi-unit activity (MUA) in hippocampal slices, field-potential recording. Format: cell-based, mouse. The following applies: wild-type slices pre-treated with capsazepine; p<0.05 vs untreated wild-type, n=27. Here is the method:
Coronal brain slices, 300-350 μm, were obtained from mice aged postnatal day 14-20 as previously described (Gibson et al., 2008; Gibson et al., 1999; McMahon & Kauer, 1997). Bathing perfusate was identical to previous except where indicated. A Haas-type interface chamber was used for field-potential recordings. Glass micropipettes were filled with 0.9% NaCl (resistance 400-700 kΩ). Simultaneous recordings were made in stratum pyramidale of CA1 and CA3 of each slice. Activity was recorded at 30° C. (5 min), ramped to 42° C. (5 min) and returned to 30° C. (10 min). Signals were amplified, digitally recorded at 10 kHz and stored (LabView).
For field-potential recordings, coronal slices, 350 μm thick, were obtained from P14-15 mice as previously described (Gibson et al., 2008; Gibson et al., 1999; McMahon & Kauer, 1997). Slices were kept at room temperature for at least 30 min until transferred to a 30° C. recording chamber. […] For all field-potential recordings, activity was recorded at 30° C. […] Signals were amplified, digitally recorded at 10 kHz and stored using an in-house LabView based program.
Multi-unit activity (MUA) was high-pass filtered at 500 Hz and spikes were detected using threshold-crossing criteria. […]
All combined data are expressed as mean±the standard error of the mean (s.e.m.). […]

Assay [2] deals with synapses between CA3 and CA1 pyramidal cells. Nature of the assay: Field EPSP recordings in hippocampal slices. In kind it is cell-based, rat. Here is the method: The maximal initial slope of fEPSPs was calculated using a LabVIEW-based program (National Instruments). The peak amplitude of each EPSC was measured by comparing a 10 msec time period immediately prior to the stimulus with the peak of the EPSC using this program as well. Occasionally polysynaptic responses were evoked, and in these cases, only the initial monosynaptic event was measured. To positively identify LTD, EPSCs measured every 10 seconds were averaged in 1 minute intervals. EPSC amplitude values were normalized to control pre-HFS EPSC amplitude values (baseline period of at least 5 minutes prior to HFS) and subjected to analysis of variance (ANOVA) repeated measures analysis with a post-hoc Dunnett's test (GraphPad Prism, Version 4). […] EPSC amplitude values 15 to 20 minutes post-HFS were compared between control LTD experiments and those carried out either in transgenic TRPV1^−/− mice, or in the presence of drug using a t-test (unpaired, two-tailed, with Welch's correction if the variances between the groups were unequal). To calculate the effects of capsaicin, 12-(S)-HPETE or WIN 55,212-2 application on basal excitatory glutamatergic transmission, normalized EPSC amplitudes or fEPSP slopes were averaged in the final 5 minutes of drug application and compared with EPSCs/EPSPs 5 minutes prior to drug application. In addition, to measure capsaicin's effects on holding current, the peak change in holding current was measured during bath application of 3 μM capsaicin. The n-values reported refer to the number of slices. All combined data are expressed as mean±the standard error of the mean (s.e.m.).

Assay [3] relates to excitatory synapses onto CA1 hippocampal interneurons. Description: Synaptic failure analysis using minimal stimulation. Format: cell-based, rat. The following applies: capsaicin 1 μM; pre-capsaicin 38.4±3.5%; n=5. Here is the method:
Slices were continuously perfused with ACSF warmed to 28-32° C. at a flow rate of 1-2 ml/min. Picrotoxin (100 μM) and D-AP5 (50 μM) were added to block GABAA receptor- and NMDAR-mediated synaptic transmission. Whole-cell patch clamp recordings were made from interneurons identified visually in the CA1 stratum radiatum of the hippocampus. […] Patch pipettes were filled with internal recording solution containing in mM: 117 cesium gluconate, 2.8 NaCl, 5 MgCl2, 20 HEPES, 2 ATP-Na^+, 0.3 GTP-Na^+ and 0.6 EGTA. In some experiments 2 μM capsazepine, 140 nM baicalein, or 250 μM GDPβS were also included in the intracellular patch pipette solution. In experiments with BAPTA-containing patch electrodes, EGTA was omitted from the intracellular solution and 25 or 40 mM BAPTA replaced a corresponding amount of cesium gluconate. EPSCs were stimulated at 0.1 Hz (100 μsec) using a bipolar stainless steel stimulating electrode placed in stratum radiatum at least 200 μm from the recorded cell. […] In early experiments, we measured rectification ratios of EPSCs evoked at +40 mV/−60 mV in the presence of 50 μM D-AP5, measured at the time of peak inward synaptic current seen at −70 mV (Lei and McBain, 2004).

On to `Oc1cc2c(cc1O)CN(C(=S)NCCc1ccc(Cl)cc1)CCC2` [capsazepine], for which, in assay [1], the “incidence of heat-induced increased MUA in area CA3” value was “mimicked trpv1^−/− incidence rates of increased MUA in area CA3”.
As for `COc1cc(CNC(=O)CCCCC=CC(C)C)ccc1O` [capsaicin, 8-methyl-N-vanillyl-6-nonenamide], the “fEPSP slopes after 10-15 minutes in capsaicin” value in assay [2] (1 μM capsaicin, P=0.58, n=5) is 102.8±5.4 % of pre-drug control values. Also, the “effect on synaptic transmission at the CA3-CA1 synapse” value in assay [2] (10 μM capsaicin, often with depression of presynaptic fiber volley) is listed as “depressed synaptic transmission”. In addition, the “average synaptic failures in capsaicin” value in assay [3] came to 73.5±7.8%.

The record behind these values is patent US20110166196A1, “TREATMENT AND PROPHYLAXIS OF EPILEPSY AND FEBRILE SEIZURES” (priority 2008, published 2011).
